# Source: patent US9815846B2 (Merck Sharp & Dohme Corp., priority 2014, dated 2017)
# Molecular target: human TrkA receptor (Homo sapiens (Human), UniProt P04629)
# Test: DiscoverX PathHunter TrkA functional assay (NGF-stimulated U2OS cells)
# Type: cell-based
# Settings: U2OS cells expressing human TrkA-PK, Shc1-EA and p75NTR; compound 1 h, then NGF at ~80% of maximal response for 3 h; luminescence
# Sequence of human TrkA receptor (P04629 33-796): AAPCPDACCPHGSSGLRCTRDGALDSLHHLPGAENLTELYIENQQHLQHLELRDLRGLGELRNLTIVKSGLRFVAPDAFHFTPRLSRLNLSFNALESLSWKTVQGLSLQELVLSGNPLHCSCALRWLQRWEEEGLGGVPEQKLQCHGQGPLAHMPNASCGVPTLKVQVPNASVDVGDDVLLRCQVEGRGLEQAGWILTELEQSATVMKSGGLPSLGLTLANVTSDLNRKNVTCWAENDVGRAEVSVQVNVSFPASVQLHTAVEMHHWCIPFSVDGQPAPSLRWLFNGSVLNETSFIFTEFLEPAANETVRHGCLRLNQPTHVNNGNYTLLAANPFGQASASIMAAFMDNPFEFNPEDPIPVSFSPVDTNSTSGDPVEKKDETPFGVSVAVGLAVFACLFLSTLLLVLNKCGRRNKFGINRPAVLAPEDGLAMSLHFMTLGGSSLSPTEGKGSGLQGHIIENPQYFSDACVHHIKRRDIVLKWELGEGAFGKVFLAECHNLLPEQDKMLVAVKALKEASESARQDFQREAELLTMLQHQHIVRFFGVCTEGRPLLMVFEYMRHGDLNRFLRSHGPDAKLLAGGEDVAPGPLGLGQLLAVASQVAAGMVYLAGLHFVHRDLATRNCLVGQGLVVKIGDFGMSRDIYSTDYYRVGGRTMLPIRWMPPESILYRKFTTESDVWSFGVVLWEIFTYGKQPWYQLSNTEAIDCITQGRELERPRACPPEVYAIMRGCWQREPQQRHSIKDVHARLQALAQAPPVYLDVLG
row,SMILES,IC50
1,"COCC(=O)NCc1ccc(NC(=O)c2cc(-c3ccn(C)n3)c(C(F)(F)F)cc2F)c(-c2ccccc2)n1 [Example 58, 2-fluoro-N-(6-((2-methoxyacetamido)methyl)-2-phenylpyridin-3-yl)-5-(1-methyl-1H-pyrazol-3-yl)-4-(trifluoromethyl)benzamide]",0.19 nM
2,"Cn1ccc(-c2cc(C(=O)Nc3ccc(CNC(=O)CS(C)(=O)=O)nc3-c3ccccc3)c(F)cc2C(F)(F)F)n1 [Example 59, 2-fluoro-5-(1-methyl-1H-pyrazol-3-yl)-N-(6-((2-(methylsulfonyl)acetamido)methyl)-2-phenylpyridin-3-yl)-4-(trifluoromethyl)benzamide]",0.23 nM
3,"C[C@@H](O)C(=O)NCc1ncc(NC(=O)c2cc(-c3ccn(C)n3)c(C(F)(F)F)cc2F)c(-c2ccccc2)n1 [Example 60, (R)-2-fluoro-N-(2-((2-hydroxypropanamido)methyl)-4-phenylpyrimidin-5-yl)-5-(1-methyl-1H-pyrazol-3-yl)-4-(trifluoromethyl)benzamide]",1.1 nM
4,"COCC(=O)NCc1ncc(NC(=O)c2cc(-c3ccn(C)n3)c(C(F)(F)F)cc2F)c(-c2ccccc2)n1 [Example 64, 2-fluoro-N-(2-((2-methoxyacetamido)methyl)-4-phenylpyrimidin-5-yl)-5-(1-methyl-1H-pyrazol-3-yl)-4-(trifluoromethyl)benzamide]",0.44 nM
5,"Cn1ccc(-c2cc(C(=O)Nc3ncc(CNC(=O)CO)nc3-c3ccccc3)c(F)cc2C(F)(F)F)n1 [Example 65, 2-fluoro-N-(5-((2-hydroxyacetamido)methyl)-3-phenylpyrazin-2-yl)-5-(1-methyl-1H-pyrazol-3-yl)-4-(trifluoromethyl)benzamide]",3.3 nM
6,"Cn1ccc(-c2cc(C(=O)Nc3cnc(CNC(=O)CS(C)(=O)=O)nc3-c3ccccc3)c(F)cc2C(F)(F)F)n1 [Example 67, 2-fluoro-5-(1-methyl-1H-pyrazol-3-yl)-N-(2-((2-(methylsulfonyl)acetamido)methyl)-4-phenylpyrimidin-5-yl)-4-(trifluoromethyl)benzamide]",1.6 nM
7,Cn1ccc(-c2cc(C(=O)Nc3cnc(CNC(=O)Cn4cncn4)nc3-c3ccccc3)c(F)cc2C(F)(F)F)n1 [Example 68],0.4 nM
8,"Cn1ccc(-c2cc(C(=O)Nc3ncc(CNC(=O)CO)cc3-c3ccccc3)c(F)cc2C(F)(F)F)n1 [Example 69, 2-fluoro-N-(5-((2-hydroxyacetamido)methyl)-3-phenylpyridin-2-yl)-5-(1-methyl-1H-pyrazol-3-yl)-4-(trifluoromethyl)benzamide]",18 nM
9,"Cn1ccc(-c2cc(C(=O)Nc3cnc(CNC(=O)CN4CCOC4=O)nc3-c3ccccc3)c(F)cc2C(F)(F)F)n1 [Example 70, 2-fluoro-5-(1-methyl-1H-pyrazol-3-yl)-N-(2-((2-(2-oxooxazolidin-3-yl)acetamido)methyl)-4-phenylpyrimidin-5-yl)-4-(trifluoromethyl)benzamide]",0.53 nM
10,"C[C@@H](O)C(=O)NCc1cnc(NC(=O)c2cc(-c3ccn(C)n3)c(C(F)(F)F)cc2F)c(-c2ccccc2)n1 [Example 71, (R)-2-fluoro-N-(5-((2-hydroxypropanamido)methyl)-3-phenylpyrazin-2-yl)-5-(1-methyl-1H-pyrazol-3-yl)-4-(trifluoromethyl)benzamide]",3.6 nM
11,"C[C@H](O)C(=O)N(C)Cc1ccc(NC(=O)c2cc(-c3ccn(C)n3)c(C(F)(F)F)cc2F)c(-c2ccccc2)n1 [Example 72, (S)-2-fluoro-N-(6-((2-hydroxy-N-methylpropanamido)methyl)-2-phenylpyridin-3-yl)-5-(1-methyl-1H-pyrazol-3-yl)-4-(trifluoromethyl)benzamide]",0.57 nM
12,"C[C@@H](N)C(=O)NCc1ncc(NC(=O)c2cc(-c3ccn(C)n3)c(C(F)(F)F)cc2F)c(-c2ccccc2)n1 [Example 73, (R)-N-(2-((2-aminopropanamido)methyl)-4-phenylpyrimidin-5-yl)-2-fluoro-5-(1-methyl-1H-pyrazol-3-yl)-4-(trifluoromethyl)benzamide]",1 nM
13,"Cn1ccc(-c2cc(C(=O)Nc3cnc(CNC(=O)[C@@H]4COCCN4)nc3-c3ccccc3)c(F)cc2C(F)(F)F)n1 [Example 74, (S)-N-((5-(2-fluoro-5-(1-methyl-1H-pyrazol-3-yl)-4-(trifluoromethyl)benzamido)-4-phenylpyrimidin-2-yl)methyl)morpholine-3-carboxamide]",2 nM
14,"Cn1ccc(-c2cc(C(=O)Nc3cnc(CNS(C)(=O)=O)nc3-c3ccccc3)ccc2C(F)(F)F)n1 [Example 75, 3-(1-methyl-1H-pyrazol-3-yl)-N-(2-(methylsulfonamidomethyl)-4-phenylpyrimidin-5-yl)-4-(trifluoromethyl)benzamide]",12 nM
15,"Cn1ccc(-c2cc(C(=O)Nc3cnc(CNC(N)=O)nc3-c3ccccc3)c(F)cc2C(F)(F)F)n1 [Example 76, 2-Fluoro-5-(1-methyl-1H-pyrazol-3-yl)-N-(4-phenyl-2-(ureidomethyl)pyrimidin-5-yl)-4-(trifluoromethyl)benzamide]",0.84 nM
16,"Cn1ccc(-c2cc(C(=O)Nc3cnc(CN4CCNC4=O)nc3-c3ccccc3)c(F)cc2C(F)(F)F)n1 [Example 77, 2-fluoro-5-(1-methyl-1H-pyrazol-3-yl)-N-(2-((2-oxoimidazolidin-1-yl)methyl)-4-phenylpyrimidin-5-yl)-4-(trifluoromethyl)benzamide]",1 nM
17,"CN(Cc1ccc(NC(=O)c2cc(-c3ccn(C)n3)c(C(F)(F)F)cc2F)c(-c2ccccc2)n1)C(N)=O [Example 78, 2-fluoro-5-(1-methyl-1H-pyrazol-3-yl)-N-(6-((1-methylureido)methyl)-2-phenylpyridin-3-yl)-4-(trifluoromethyl)benzamide]",1.1 nM
18,"CN(Cc1ccc(NC(=O)c2cc(-c3ccn(C)n3)c(C(F)(F)F)cc2F)c(-c2ccccc2)n1)C(=O)NCCO [Example 79, 2-fluoro-N-(6-((3-(2-hydroxyethyl)-1-methylureido)methyl)-2-phenylpyridin-3-yl)-5-(1-methyl-1H-pyrazol-3-yl)-4-(trifluoromethyl)benzamide]",1.1 nM
19,"Cn1ccc(-c2cc(C(=O)Nc3cnc(COC(N)=O)nc3-c3ccccc3)c(F)cc2C(F)(F)F)n1 [Example 80, (5-(2-Fluoro-5-(1-methyl-1H-pyrazol-3-yl)-4-(trifluoromethyl)benzamido)-4-phenylpyrimidin-2-yl)methyl carbamate]",0.49 nM

# Now from value to compound:
row,IC50,SMILES
1,14 nM,"Cn1ccc(-c2cc(C(=O)Nc3cc(C(=O)O)cnc3-c3ccccc3)c(F)cc2C(F)(F)F)n1 [Example 81, 5-(2-Fluoro-5-(1-methyl-1H-pyrazol-3-yl)-4-(trifluoromethyl)benzamido)-6-phenylnicotinic acid]"
2,11 nM,"CN(C)C(=O)c1cnc(-c2ccccc2)c(NC(=O)c2cc(-c3ccn(C)n3)c(C(F)(F)F)cc2F)c1 [Example 82, 5-(2-Fluoro-5-(1-methyl-1H-pyrazol-3-yl)-4-(trifluoromethyl)benzamido)-N,N-dimethyl-6-phenylnicotinamide]"
3,1.1 nM,"CNC(=O)c1cnc(-c2ccccc2)c(NC(=O)c2cc(-c3ccn(C)n3)c(C(F)(F)F)cc2F)c1 [Example 83, 5-(2-fluoro-5-(1-methyl-1H-pyrazol-3-yl)-4-(trifluoromethyl)benzamido)-N-methyl-6-phenylnicotinamide]"
4,1.2 nM,"C[C@H](O)CNC(=O)c1cnc(-c2ccccc2)c(NC(=O)c2cc(-c3ccn(C)n3)c(C(F)(F)F)cc2F)c1 [Example 84, (S)-5-(2-fluoro-5-(1-methyl-1H-pyrazol-3-yl)-4-(trifluoromethyl)benzamido)-N-(2-hydroxypropyl)-6-phenylnicotinamide]"
5,0.58 nM,"C[C@@H](CO)NC(=O)c1cnc(-c2ccccc2)c(NC(=O)c2cc(-c3ccn(C)n3)c(C(F)(F)F)cc2F)c1 [Example 85, (S)-5-(2-fluoro-5-(1-methyl-1H-pyrazol-3-yl)-4-(trifluoromethyl)benzamido)-N-(1-hydroxypropan-2-yl)-6-phenylnicotinamide]"
6,19 nM,"Cc1cnn(-c2ccc(C(N)=O)cc2NC(=O)c2ccc(C(F)(F)F)c(-c3ccn(C)n3)c2)c1 [Example 86, N-(5-carbamoyl-2-(4-methyl-1H-pyrazol-1-yl)phenyl)-3-(1-methyl-1H-pyrazol-3-yl)-4-(trifluoromethyl)benzamide]"
7,8.5 nM,"Cn1ccc(-c2cc(C(=O)Nc3cc(C(N)=O)c(N)nc3-c3ccccc3)ccc2C(F)(F)F)n1 [Example 87, 2-amino-5-(3-(1-methyl-1H-pyrazol-3-yl)-4-(trifluoromethyl)benzamido)-6-phenylnicotinamide]"
8,1200 nM,"O=C(Nc1cnc(C(=O)N2CCOCC2)nc1-c1ccccc1)c1ccc(C(F)(F)F)c(-c2cc[nH]n2)c1 [Example 88, N-(2-(morpholine-4-carbonyl)-4-phenylpyrimidin-5-yl)-3-(1H-pyrazol-3-yl)-4-(trifluoromethyl)benzamide]"
9,1.5 nM,"Cn1ccc(-c2cc(C(=O)Nc3cc(C(N)=O)cnc3-c3ccccc3)ccc2C(F)(F)F)n1 [Example 89, 5-(3-(1-methyl-1H-pyrazol-3-yl)-4-(trifluoromethyl)benzamido)-6-phenylnicotinamide]"
10,80 nM,"CN1CC(NC(=O)c2cnc(-c3ccccc3)c(NC(=O)c3cc(-c4cc[nH]n4)c(C(F)(F)F)cc3F)c2)C1 [Example 90, 5-(2-fluoro-5-(1H-pyrazol-3-yl)-4-(trifluoromethyl)benzamido)-N-(1-methylazetidin-3-yl)-6-phenylnicotinamide]"
11,11 nM,"NC(=O)c1cnc(-c2ccccc2)c(NC(=O)c2cc(-c3ncccn3)c(C(F)(F)F)cc2F)c1 [Example 91, 5-(2-fluoro-5-(pyrimidin-2-yl)-4-(trifluoromethyl)benzamido)-6-phenylnicotinamide]"
12,2.2 nM,"O=C(NCc1cccnc1)c1cnc(-c2ccccc2)c(NC(=O)c2cc(-c3ncccn3)c(C(F)(F)F)cc2F)c1 [Example 92, 5-(2-fluoro-5-(pyrimidin-2-yl)-4-(trifluoromethyl)benzamido)-6-phenyl-N-(pyridin-3-ylmethyl)nicotinamide]"
13,5.7 nM,"NC(=O)c1cnc(-c2ccccc2)c(NC(=O)c2cc(-c3cc[nH]n3)c(C(F)(F)F)cc2F)c1 [Example 93, 5-(2-fluoro-5-(1H-pyrazol-3-yl)-4-(trifluoromethyl)benzamido)-6-phenylnicotinamide]"
